Reference: US20240148821A1, “PHARMACEUTICAL USE OF CYCLIC PEPTIDE COMPOUND” (CHUGAI SEIYAKU KABUSHIKI KAISHA, priority 2021, published 2024)
Numbered stars: 1 amine (or outer) side, 2 acyl side, 3 side chain; on linkers, the order of the positions; unused ones are H or OH. Bridge positions count the residues as written; N and C are the ends. Square brackets hold non-standard residues; d marks the D form. Peptide text beside a SMILES is read from it. * marks the point of attachment. hPhe(3,5-F2-4-CF3) = N[C@@H](CCc1cc(F)c(C(F)(F)F)c(F)c1)C(=O)O; hPhe(3-Cl-4-CF3) = N[C@@H](CCc1ccc(C(F)(F)F)c(Cl)c1)C(=O)O; NMePhe(4-CF3) = CN[C@@H](Cc1ccc(C(F)(F)F)cc1)C(=O)O; NMePhe(4-Cl) = CN[C@@H](Cc1ccc(Cl)cc1)C(=O)O; NMePhe(4-Me) = CN[C@@H](Cc1ccc(C)cc1)C(=O)O; NMePhe(4-I) = CN[C@@H](Cc1ccc(I)cc1)C(=O)O; hPhe(3-Cl) = N[C@@H](CCc1cccc(Cl)c1)C(=O)O; NMedβ3hAla = C[C@H](CC(=O)[*:2])N(C)[*:1]; NMeCha = CN[C@@H](CC1CCCCC1)C(=O)O; Hyp = O=C(O)[C@@H]1C[C@@H](O)CN1; NMeChg = CN[C@H](C(=O)O)C1CCCCC1; NMeI = CC[C@H](C)[C@H](NC)C(=O)O; Piperidide(4-Me) = CC1CCN(*)CC1; NMeD = CN[C@@H](CC(=O)O)C(=O)O; NMeHpra = C#CCC[C@H](NC)C(=O)O; NMeL = CN[C@@H](CC(C)C)C(=O)O; NMeV = CN[C@H](C(=O)O)C(C)C; d(β3hA) = C[C@@H](N)CC(=O)O; NMeS = CN[C@@H](CO)C(=O)O; NMeA = CN[C@@H](C)C(=O)O; NMeAib = CNC(C)(C)C(=O)O; Piperidide = C1CCN(*)CC1; dNMeA = CN[C@H](C)C(=O)O; Ac5c = NC1(C(=O)O)CCCC1; Aze = O=C(O)[C@@H]1CCN1; Ac4c = NC1(C(=O)O)CCC1; NBuGly = CCCCNCC(=O)O; X14 = c1cc(C*)cs1; Sar = CNCC(=O)O; Propyl = CCC*

biological target: protein-protein interaction between Kras and SOS1 (biotin-tagged human Kras loaded with GDP, His-tagged human SOS1) (Homo sapiens (Human), UniProt P01116, G12D); assay: Protein-protein interaction inhibition between Kras and SOS1 (KrasG12D-SOS PPI) using AlphaScreen; type: biochemical; details: AlphaScreen; biotin-tagged human Kras loaded with GDP, His-tagged human SOS1; read-out: KRAS G12D-SOS PPI IC50;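 further: kras produced in E. coli, Ni-coupled donor beads and streptavidin acceptor beads, excitation 680 nm with emission detected at 520–620 nm via singlet oxygen transfer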

In order of rising IC50:
1. CC[C@H](C)[C@@H]1NC(=O)[C@H](CC(C)C)N(C)C(=O)C[C@@H](C(=O)N2CCCCC2)N(C)C(=O)[C@H](C2CCCCC2)N(C)C(=O)C2(CCCC2)NC(=O)[C@@H]2C[C@@H](OCc3ccsc3)CN2C(=O)[C@H](CCc2ccc(C(F)(F)F)c(Cl)c2)NC(=O)CN(C)C(=O)[C@H](CC2CCCCC2)N(C)C(=O)CN(C)C(=O)CN(C)C1=O [Compound 2124] ([NMeL]I[Sar][Sar][NMeCha][Sar][hPhe(3-Cl-4-CF3)][Hyp](X14)[Ac5c][NMeChg][NMeD]-Piperidide; lactam N-11)  0.91 nM
2. CC[C@H](C)[C@@H]1NC(=O)[C@H](CC(C)C)N(C)C(=O)C[C@@H](C)NC(=O)[C@H](C(C)C)N(C)C(=O)C2(CCCC2)NC(=O)[C@@H]2CCCN2C(=O)[C@H](CCc2ccc(C(F)(F)F)c(Cl)c2)NC(=O)CN(C)C(=O)[C@H](Cc2ccc(Cl)cc2)N(C)C(=O)[C@@H]2CCN2C(=O)[C@H](C)N(C)C1=O [Compound 1018] (cyclo([Ac5c][NMeV][d(β3hA)][NMeL]I[NMeA][Aze][NMePhe(4-Cl)][Sar][hPhe(3-Cl-4-CF3)]P))  11 nM
3. C#CCC[C@H]1C(=O)N[C@@H]([C@@H](C)CC)C(=O)N(C)[C@@H](C)C(=O)N2CC[C@H]2C(=O)N(C)[C@@H](Cc2ccc(I)cc2)C(=O)N(C)CC(=O)N[C@@H](CCc2ccc(C(F)(F)F)c(Cl)c2)C(=O)N2CCC[C@H]2C(=O)NC2(CCCC2)C(=O)N(C)[C@@H](C2CCCCC2)C(=O)N(C)[C@H](C)CC(=O)N1C [Compound 961] (cyclo([Ac5c][NMeChg][NMedβ3hAla][NMeHpra]I[NMeA][Aze][NMePhe(4-I)][Sar][hPhe(3-Cl-4-CF3)]P))  12 nM
4. CCCCN1CC(=O)N(C)[C@@H]([C@@H](C)CC)C(=O)N(C)[C@H](C(=O)N(C)C)CC(=O)N(C)[C@@H](CC(C)C)C(=O)N[C@@H]([C@@H](C)CC)C(=O)N(C)[C@@H](C)C(=O)N2CC[C@H]2C(=O)N(C)[C@@H](Cc2ccc(C)cc2)C(=O)N(C)CC(=O)N[C@@H](CCc2ccc(C(F)(F)F)c(Cl)c2)C(=O)N2CCC[C@H]2C1=O [Compound 215] ([NMeL]I[NMeA][Aze][NMePhe(4-Me)][Sar][hPhe(3-Cl-4-CF3)]P[NBuGly][NMeI][NMeD]-NMe2; lactam N-11)  29 nM
5. CCO[C@@H]1C[C@H]2C(=O)NC3(CCC3)C(=O)N(C)[C@@H](C3CCCCC3)C(=O)N(C)[C@H](C)CC(=O)N(C)[C@@H](CC(C)C)C(=O)N[C@@H]([C@@H](C)CC)C(=O)N(C)[C@@H](C)C(=O)N3CC[C@H]3C(=O)N(C)[C@@H](Cc3ccc(C(F)(F)F)cc3)C(=O)N(C)CC(=O)N[C@@H](CCc3cc(F)c(C(F)(F)F)c(F)c3)C(=O)N2C1 [Compound 365] (cyclo([Ac4c][NMeChg][NMedβ3hAla][NMeL]I[NMeA][Aze][NMePhe(4-CF3)][Sar][hPhe(3,5-F2-4-CF3)][Hyp](Et)))  38 nM
6. CC[C@H](C)[C@@H]1NC(=O)[C@H](CC(C)C)N(C)C(=O)C[C@@H](C(=O)N2CCC(C)CC2)NC(=O)[C@H](C(C)C)N(C)C(=O)C2(CCCC2)NC(=O)[C@@H]2CCCN2C(=O)[C@H](CCc2ccc(C(F)(F)F)c(Cl)c2)NC(=O)CN(C)C(=O)[C@H](CC2CCCCC2)N(C)C(=O)[C@@H]2CCN2C(=O)[C@H](C)N(C)C1=O [Compound 1161] ([NMeL]I[NMeA][Aze][NMeCha][Sar][hPhe(3-Cl-4-CF3)]P[Ac5c][NMeV]D-{Piperidide(4-Me)}; lactam N-11)  60 nM
7. CC[C@H](C)[C@@H]1NC(=O)[C@H](C)N(C)C(=O)C[C@@H](C(=O)N2CCCCC2)N(C)C(=O)[C@H](C(C)C)N(C)C(=O)C2(CCCC2)NC(=O)[C@@H]2CCCN2C(=O)[C@H](CCc2cccc(Cl)c2)NC(=O)CN(C)C(=O)[C@H](CC2CCCCC2)N(C)C(=O)[C@@H]2CCN2C(=O)[C@H](C)N(C)C1=O [Compound 625] ([NMeA]I[NMeA][Aze][NMeCha][Sar][hPhe(3-Cl)]P[Ac5c][NMeV][NMeD]-Piperidide; lactam N-11)  70 nM
8. CCCOC[C@H]1C(=O)N2CC[C@H]2C(=O)N(C)[C@@H](CC2CCCCC2)C(=O)N(C)CC(=O)N[C@@H](CCc2ccc(C(F)(F)F)c(Cl)c2)C(=O)N2CCC[C@H]2C(=O)NC2(CCCC2)C(=O)N(C)[C@@H](C(C)C)C(=O)N[C@H](C)CC(=O)N(C)[C@@H](CC(C)C)C(=O)N[C@@H]([C@@H](C)CC)C(=O)N1C [Compound 852] (cyclo([Ac5c][NMeV][d(β3hA)][NMeL]I[NMeS](Propyl)[Aze][NMeCha][Sar][hPhe(3-Cl-4-CF3)]P))  190 nM
9. CC[C@H](C)[C@@H]1NC(=O)[C@H](CC(C)C)N(C)C(=O)C[C@@H](C)N(C)C(=O)[C@H](CC(C)C)NC(=O)C(C)(C)N(C)C(=O)[C@H](CC(C)C)NC(=O)[C@H](CCc2ccc(C(F)(F)F)c(Cl)c2)NC(=O)[C@@H](C)N(C)C(=O)[C@H](Cc2ccc(C)cc2)N(C)C(=O)CN(C)C(=O)CN(C)C1=O [Compound 1384] (cyclo(I[Sar][Sar][NMePhe(4-Me)][dNMeA][hPhe(3-Cl-4-CF3)]L[NMeAib]L[NMedβ3hAla][NMeL]))  230 nM
